Assay results taken from patent US9855273B2, “Combination therapy for MDS” (priority 2013, dated 2018).

Assays:
[1] = system: MDSL cells; assay: MDSL xenograft, cells pre-treated in vitro, NSGS mice; assay type: in vivo; settings: MDSL treated in vitro with IRAK-Inh 10 μM and/or ABT-263 0.1 μM; DMSO 28 days
Procedure: Xenograftment of NOD/SCID-IL2Rγ(NSG) and NSG-hSCF/hGM-CSF/hIL3 (NSGS) MDSL cells (1×10^6-5×10^6) were injected into the tail veins of 8-week old sublethally irradiated ([…]) NSG or NSG animals engineered to express human SCF, GM-CSF, and IL3 (NSGS) as previously described (Wunderlich et al., 2010). Mice were monitored by performing complete blood counts (Drew Hemavet 950FS). Following red cell lysis, human MDSL cells were identified by hCD45-FITC staining. In vivo delivery of IRAK-Inh approach is adapted from previous reports (Yang et al., 2011): IRAK-Inh was diluted in DMSO (5 mM) and further dissolved in sterile phosphate buffered saline (PBS; pH 7.2). Animals were injected i.p. with 2.12 mg/kg IRAK-Inh 3× weekly.
To determine whether IRAK-Inh can delay human MDS-like disease in vivo, MDSL were pre-treated with IRAK-Inh (10 μM) for 24 hrs in vitro and subsequently injected intravenously (i.v.) into NSG (5×10^6 cells) and NSGS (1×10^6 cells) recipient mice (FIG. 4A). This approach permitted us to evaluate the cell autonomous effect of IRAK-Inh on MDS cell viability and engraftment without altering endogenous IRAK1 function in the mouse.
Moreover, we investigated whether combined IRAK1 and BCL2 inhibition could delay human MDS-like disease in vivo. MDSL cells were treated with IRAK-Inh (10 μM) and/or ABT-263 (0.1 μM) for 48 hrs in vitro and subsequently injected i.v. into NSGS mice (FIG. 4A).

[2] = system: normal CD34+ cells; assay: Colony formation in methylcellulose, normal CD34+ cells; settings: individual or combination treatment
Procedure: The effect of IRAK-Inh on leukemic progenitor function was evaluated in methylcellulose containing IRAK-Inh. […] As an alternative approach, MDS/AML cells were pre-treated with IRAK-Inh for 24 hours and then plated in methylcellulose.

[3] = system: MDS/AML cell lines (MDSL, TF1, THP1, HL60); assay: Viable cell growth (trypan blue exclusion) of MDS/AML cell lines; assay type: cell-based, human; settings: IRAK-Inh 10 μM, ABT-263 0.1 μM
Procedure: Acute myeloid leukemic cell lines, HL60, THP1, and TF-1 were purchased from the American Type Culture Collection. MOLM13 were purchased from AddexBio. The myelodysplastic cell line, MDS-L, was provided by Dr. Kaoru Tohyama (Kawasaki Medical School, Okayama, Japan) (Matsuoka et al., 2010). […] Additionally, both the MDSL and TF-1 cell lines were cultured in the presence of 10 ng/mL human recombinant IL-3 (Stemcell Technologies).

## CC1(C)CCC(c2ccc(Cl)cc2)=C(CN2CCN(c3ccc(C(=O)NS(=O)(=O)c4ccc(N[C@H](CCN5CCOCC5)CSc5ccccc5)c(S(=O)(=O)C(F)(F)F)c4)cc3)CC2)C1 [ABT-263]
[1]
  median survival: ~35 days
[2]
  viability and hematopoietic progenitor function of normal CD34+ cells: not affected
[3]; HL60, alone or combined
  sensitivity of HL60 cells: refractory
[3]; alone or co-treatment
  MDS/AML cell line growth and survival: modest effects
